Earlier results on five compounds are cited in US4162311A, “Medicinal preparation with pronounced vegetotropic and antiepileptic effect for treating psychoneurotic disorders” (priority 1977, dated 1979).

SMILES strings stand for the structures.

The conditions of data set [1]: cited from earlier work; for vegetotropic and antiepileptic effect: among tranquilizers; for relaxing effect and sluggishness: taken over prolonged periods of time; for effect of other treatments: aforesaid diseases.
Data set [2] concerns convulsant effects of corasole and caffeine. As to conditions: mice; comparison drug; cited from earlier work.

As for `CNC1=Nc2ccc(Cl)cc2C(c2ccccc2)=[N+]([O-])C1` [chlorodiazepoxide], in data set [1], the “vegetotropic and antiepileptic effect” value was “most pronounced vegetotropic and antiepileptic effect”; the “relaxing effect and sluggishness” value is “manifest a relaxing effect and produce sluggishness”.

Turning to `CCN(CC)CCOC(=O)c1ccc(N)cc1` [novocain], the “effect of other treatments” value in data set [1] was “only a limited and short-lived effect”.

With `CN1C(=O)CN=C(c2ccccc2)c2cc(Cl)ccc21` [diazepam], in data set [1], the “vegetotropic and antiepileptic effect” value is “most pronounced vegetotropic and antiepileptic effect”; the “relaxing effect and sluggishness” value was “manifest a relaxing effect and produce sluggishness”.

`[Mg+2].[O-2]` [magnesia]: in data set [1], the “effect of other treatments” value was “only a limited and short-lived effect”.

Take `COC(=O)[C@H]1[C@H]2C[C@@H]3c4[nH]c5cc(OC)ccc5c4CCN3C[C@H]2C[C@@H](OC(=O)c2cc(OC)c(OC)c(OC)c2)[C@@H]1OC` [reserpine]: the “sensitivity to convulsant effects of corasole and caffeine” value in data set [2] is “increases the sensitivity of mice”.
